# Columns and labels:
# [1] = test system: Ruminococcus flavefaciens; assay: Antibacterial activity against Ruminococcus flavefaciens by CLSI M11-A6 agar dilution method; format: functional
# Bifidobacterium breve = assay: Antibacterial activity against Bifidobacterium breve by CLSI M11-A6 agar dilution method; format: functional
# Prevotella buccae = assay: Antibacterial activity against Prevotella buccae by CLSI M11-A6 agar dilution method; format: functional; conditions: Segatella buccae
# Ruminococcus lactaris = assay: Antibacterial activity against Ruminococcus lactaris by CLSI M11-A6 agar dilution method; format: functional
# [2] = test system: Bifidobacterium pseudolongum; assay: Antibacterial activity against Bifidobacterium pseudolongum by CLSI M11-A6 agar dilution method; format: functional
# Ruminococcus torques = assay: Antibacterial activity against Ruminococcus torques by CLSI M11-A6 agar dilution method; format: functional; conditions: Mediterraneibacter torques
# [3] = test system: Bifidobacterium adolescentis; assay: Antibacterial activity against Bifidobacterium adolescentis by CLSI M11-A6 agar dilution method; format: functional
# Clostridium spiroforme = assay: Antibacterial activity against Clostridium spiroforme by CLSI M11-A6 agar dilution method; format: functional; conditions: Thomasclavelia spiroformis
# [4] = test system: Coprobacillus cateniformis; assay: Antibacterial activity against Coprobacillus cateniformis by CLSI M11-A6 agar dilution method; format: functional
# Clostridium scindens = assay: Antibacterial activity against Clostridium scindens by CLSI M11-A6 agar dilution method; format: functional
# Clostridium glycolicum = assay: Antibacterial activity against Clostridium glycolicum by CLSI M11-A6 agar dilution method; format: functional; conditions: Terrisporobacter glycolicus
# [5] = test system: Clostridium sporosphaeroides; assay: Antibacterial activity against Clostridium sporosphaeroides by CLSI M11-A6 agar dilution method; format: functional; conditions: Faecalispora sporosphaeroides
# Prevotella denticola = assay: Antibacterial activity against Prevotella P denticola by CLSI M11-A6 agar dilution method; format: functional
# Parabacteroides merdae = assay: Antibacterial activity against Parabacteroides merdae by CLSI M11-A6 agar dilution method; format: functional
# Coriobacterium = assay: Antibacterial activity against […] by CLSI M11-A6 agar dilution method; format: functional
# Clostridium disporicum = assay: Antibacterial activity against Clostridium disporicum by CLSI M11-A6 agar dilution method; format: functional
# Clostridium bartlettii = assay: Antibacterial activity against Clostridium bartlettii by CLSI M11-A6 agar dilution method; format: functional; conditions: Intestinibacter bartlettii
# Finegoldia magna = assay: Antibacterial activity against Finegoldia magna by CLSI M11-A6 agar dilution method; format: functional
# Clostridium subterminale = assay: Antibacterial activity against Clostridium subterminale by CLSI M11-A6 agar dilution method; format: functional
# Hoylesella oralis = assay: Antibacterial activity against Prevotella oralis by CLSI M11-A6 agar dilution method; format: functional
# Ruminococcus gnavus = assay: Antibacterial activity against Ruminococcus gnavus by CLSI M11-A6 agar dilution method; format: functional; conditions: Mediterraneibacter gnavus
# Bifidobacterium dentium = assay: Antibacterial activity against Bifidobacterium dentium by CLSI M11-A6 agar dilution method; format: functional
# [6] = test system: Paeniclostridium sordellii; assay: Antibacterial activity against Clostridium sordellii by CLSI M11-A6 agar dilution method; format: functional; conditions: Paraclostridium sordellii
# Anaerococcus prevotii = assay: Antibacterial activity against Anaerococcus prevotii by CLSI M11-A6 agar dilution method; format: functional
# Actinomyces naeslundii = assay: Antibacterial activity against Actinomyces naeslundii by CLSI M11-A6 agar dilution method; format: functional
# [7] = Antibacterial activity against Bifidobacterium infantis by CLSI M11-A6 agar dilution method; format: functional, Bifidobacterium longum subsp. infantis; conditions: Bifidobacterium longum
# Bifidobacterium longum = assay: Antibacterial activity against Bifidobacterium longum by CLSI M11-A6 agar dilution method; format: functional
# Bilophila wadsworthia = assay: Antibacterial activity against Bilophila wadsworthia by CLSI M11-A6 agar dilution method; format: functional
# [8] = test system: Parabacteroides distasonis; assay: Antibacterial activity against Parabacteroides distasonis by CLSI M11-A6 agar dilution method; format: functional
# Clostridium leptum = assay: Antibacterial activity against Clostridium leptum by CLSI M11-A6 agar dilution method; format: functional
# Clostridium sp. = assay: Antibacterial activity against Clostridium sp. by CLSI M11-A6 agar dilution method; format: functional
# Ruminococcus obeum = assay: Antibacterial activity against Ruminococcus obeum by CLSI M11-A6 agar dilution method; format: functional; conditions: Blautia obeum
# Blautia luti = assay: Antibacterial activity against Ruminococcus luti by CLSI M11-A6 agar dilution method; format: functional
# Anaerococcus tetradius = assay: Antibacterial activity against Anaerococcus tetradius by CLSI M11-A6 agar dilution method; format: functional
# Clostridium beijerinckii = assay: Antibacterial activity against Clostridium beijerinckii by CLSI M11-A6 agar dilution method; format: functional
# [9] = test system: Bacteroides thetaiotaomicron; assay: Antibacterial activity against Bacteroides thetaiotaomicron by CLSI M11-A6 agar dilution method; format: functional
# [Clostridium] innocuum = Antibacterial activity against Clostridium innocuum by CLSI M11-A6 agar dilution method; format: functional
# Bifidobacterium bifidum = assay: Antibacterial activity against Bifidobacterium bifidum by CLSI M11-A6 agar dilution method; format: functional
# [10] = test system: Enterocloster clostridioformis; assay: Antibacterial activity against Clostridium clostridioforme by CLSI M11-A6 agar dilution method; format: functional
# [11] = test system: Catenibacterium mitsuokai; assay: Antibacterial activity against Catenibacterium mitsuokai by CLSI M11-A6 agar dilution method; format: functional
# Prevotella corporis = assay: Antibacterial activity against Prevotella corporis by CLSI M11-A6 agar dilution method; format: functional
# Fusobacterium mortiferum = assay: Antibacterial activity against Fusobacterium mortiferum by CLSI M11-A6 agar dilution method; format: functional
# Streptococcus anginosus = assay: Antibacterial activity against Streptococcus anginosus by CLSI M11-A6 agar dilution method; format: functional
structure (smiles),measurement,setting,value
CCC[C@@H]1C[C@@H](C(=O)N[C@@H]([C@H]2O[C@H](SC)[C@H](O)[C@@H](O)[C@H]2O)[C@H](C)Cl)N(C)C1 [CLINDAMYCIN],MIC50,[1],≤ 0.12 µg/mL
same,MIC90,[1],2 µg/mL
same,MIC50,Bifidobacterium breve,≤ 0.12 µg/mL
same,MIC90,Bifidobacterium breve,1 µg/mL
same,MIC,Prevotella buccae,≤ 0.12 µg/mL
same,MIC50,Prevotella buccae,≤ 0.12 µg/mL
same,MIC90,Prevotella buccae,≤ 0.12 µg/mL
same,MIC50,Ruminococcus lactaris,≤ 0.12 µg/mL
same,MIC90,Ruminococcus lactaris,2 µg/mL
same,MIC50,[2],≤ 0.12 µg/mL
same,MIC90,[2],1 µg/mL
same,MIC50,Ruminococcus torques,≤ 0.12 µg/mL
same,MIC90,Ruminococcus torques,2 µg/mL
same,MIC50,[3],≤ 0.12 µg/mL
same,MIC90,[3],1 µg/mL
same,MIC90,Clostridium spiroforme,4 µg/mL
same,MIC50,[4],≤ 0.12 µg/mL
same,MIC90,[4],1 µg/mL
same,MIC90,Clostridium scindens,4 µg/mL
same,MIC90,Clostridium glycolicum,4 µg/mL
same,MIC90,[5],4 µg/mL
same,MIC,Prevotella denticola,≤ 0.12 µg/mL
same,MIC50,Prevotella denticola,≤ 0.12 µg/mL
same,MIC90,Prevotella denticola,≤ 0.12 µg/mL
same,MIC50,Parabacteroides merdae,2 µg/mL
same,MIC90,Parabacteroides merdae,64 µg/mL
same,MIC50,Coriobacterium,≤ 0.12 µg/mL
same,MIC90,Coriobacterium,1 µg/mL
same,MIC90,Clostridium disporicum,4 µg/mL
same,MIC90,Clostridium bartlettii,4 µg/mL
same,MIC90,Finegoldia magna,> 128 µg/mL
same,MIC50,Clostridium subterminale,0.5 µg/mL
same,MIC90,Clostridium subterminale,8 µg/mL
same,MIC,Hoylesella oralis,≤ 0.12 µg/mL
same,MIC50,Hoylesella oralis,≤ 0.12 µg/mL
same,MIC90,Hoylesella oralis,≤ 0.12 µg/mL
same,MIC50,Ruminococcus gnavus,≤ 0.12 µg/mL
same,MIC90,Ruminococcus gnavus,0.25 µg/mL
same,MIC50,Bifidobacterium dentium,≤ 0.12 µg/mL
same,MIC90,Bifidobacterium dentium,1 µg/mL
same,MIC90,[6],4 µg/mL
same,MIC90,Anaerococcus prevotii,> 128 µg/mL
same,MIC50,Actinomyces naeslundii,≤ 0.12 µg/mL
same,MIC90,Actinomyces naeslundii,1 µg/mL
same,MIC50,[7],≤ 0.12 µg/mL
same,MIC90,[7],1 µg/mL
same,MIC50,Bifidobacterium longum,≤ 0.12 µg/mL
same,MIC90,Bifidobacterium longum,1 µg/mL
same,MIC50,Bilophila wadsworthia,0.5 µg/mL
same,MIC90,Bilophila wadsworthia,1 µg/mL
same,MIC50,[8],2 µg/mL
same,MIC90,[8],64 µg/mL
same,MIC90,Clostridium leptum,4 µg/mL
same,MIC90,Clostridium sp.,4 µg/mL
same,MIC50,Ruminococcus obeum,≤ 0.12 µg/mL
same,MIC90,Ruminococcus obeum,≤ 0.12 µg/mL
same,MIC50,Blautia luti,≤ 0.12 µg/mL
same,MIC90,Blautia luti,2 µg/mL
same,MIC90,Anaerococcus tetradius,> 128 µg/mL
same,MIC90,Clostridium beijerinckii,4 µg/mL
same,MIC50,[9],4 µg/mL
same,MIC90,[9],> 128 µg/mL
same,MIC50,[Clostridium] innocuum,1 µg/mL
same,MIC90,[Clostridium] innocuum,> 128 µg/mL
same,MIC50,Bifidobacterium bifidum,≤ 0.12 µg/mL
same,MIC90,Bifidobacterium bifidum,1 µg/mL
same,MIC90,[10],2 µg/mL
same,MIC50,[11],≤ 0.12 µg/mL
same,MIC90,[11],1 µg/mL
same,MIC,Prevotella corporis,≤ 0.12 µg/mL
same,MIC50,Prevotella corporis,≤ 0.12 µg/mL
same,MIC90,Prevotella corporis,≤ 0.12 µg/mL
same,MIC50,Fusobacterium mortiferum,1 µg/mL
same,MIC90,Fusobacterium mortiferum,32 µg/mL
same,MIC90,Streptococcus anginosus,0.5 µg/mL

# From ChEMBL document CHEMBL1671662, “In vitro activities of telavancin and six comparator agents against anaerobic bacterial isolates” (2009)
